Tests used:
[1] = tested on: toxic hepatitis caused by carbon tetrachloride (CCl4); assay: Treatment of acute toxic hepatitis (CCl4) in rats by parenteral (intravenous) administration; type: in vivo; parameters: Total bilirubin, serum: unit not given here
Method: Treatment of toxic hepatitis by means of parenteral administration of the inventive substance. Acute toxic hepatitis was induced in rats by means of intragastric administration of 50% solution of carbon tetrachloride (CCl4) in olive oil in the amount of 1 ml/kg during 6 days. After 10 days the presence of toxic hepatitis was confirmed by morphological image of liver in all experimental animals. Starting from that day, for 10 days the preparations were administered to the experimental animals by way of treatment, once every 24 hours.
Essentiale was used as the preparation for comparison, which was administered in ampoules in the amount of 1 ml/100 g intravenously, slowly, into the caudal vein. The inventive substance was also administered intravenously in varying amounts in order to refine the treatment procedure. The effectiveness of treatment was evaluated on the basis of clinical performance, body weight dynamics, relative liver mass, the contents of bilirubin, transaminases, phosphatases, ceruloplasmin, total protein, blood serum lipids, the contents of glycogen, glutathione, SH-groups, stress tests (hexenal test, bromsulphalein test) and the histological pattern of liver.
Weight dynamics of the rats were determined by means of scales VLR-500. Liver of the animals was weighted using electronic scales 1602 MP by “Sartorius”. The contents of reduced glutathione in liver and the content of sulfhydryl groups in blood serum was evaluated by amperometric titration according to Rubinnaya N. S. (Stalnaya I.D., Garishvili T. G Modern methods in biochemistry. Moscow, Meditsina, 1977, pp. 66-68), the contents of glycogen—by the Samodi method (Stalnaya I.D., Garishvili T. G Modern methods in biochemistry. Moscow, Meditsina, 1977, pp. 66-68). The antitoxic function of liver was evaluated by the duration of hexenal sleep (70 mg per 1 kg of body weight), and the excretory function of liver was assessed by means of bromsulphalein test.
Blood for biochemical tests was obtained by means of paracentesis of the caudal vein of rats.
The activity of ALT, AST, ALP, ACP, LDH, thymol test, the contents of total protein and lipids, cholesterol, blood serum bilirubin were assessed by means of sets Bio-Lat-Test manufactured by a Czech company “Lachema”, the contents of ceruloplasmin were assessed according to Babenko (Laboratory research methods in clinical practice. Reference book, under the editorship of V. V. Menshikov. Moscow, Russia—Meditsina, 1987, p. 365). The animals were killed by decapitation, subjected to anatomicopathological autopsy and histological study. The experimental and reference rats were killed by means of decapitation. The material was fixed in 10-15% formaldehyde and embedded in paraffin. Paraffin slices were stained by means of hematoxylin and eosin. Fixed frozen slices were stained for fat by means of Sudan III.
Statistical processing of the experiments' results was done according to Student's T-distribution and F-distribution.
The effectiveness of preparations was assessed according to several groups of indices: morphometric, biochemical and functional. First of all the clinical performance of intoxication was observed. The clinical performance in the group of rats that received CCl4 with no treatment was characterized by hypodynamia, dormancy, disheveled hair and untidy appearance of the animals. They gained weight less well than the other rats. In this group, by day 15 of the study 80% of animals were dead.

[2] = tested on: liver cirrhosis induced by carbon tetrachloride (CCl4); assay: Treatment of liver cirrhosis (CCl4) in rats by oral administration; type: in vivo; parameters: Relative liver mass: unit not given here
Method: Treatment of liver cirrhosis by oral administration of the inventive substance. Liver cirrhosis was induced in rats by means of intragastric administration of 50% solution of carbon tetrachloride (CCl4) in olive oil in the amount of 1 ml/kg during 10 days. After 20 days the presence of liver cirrhosis was confirmed by morphological image of liver in all laboratory animals. Starting from that day, for 10 days the inventive agent was administered to the laboratory animals by way of treatment, once every 24 hours, in varying amounts in order to refine the optimal treatment procedure.
The effectiveness of the inventive preparation was evaluated in comparison with Essentiale by several groups of indices: morphometric, biochemical and functional. First of all the clinical performance of intoxication was observed. The clinical performance in the group of rats that received CCl4 with no treatment was characterized by hypodynamia, dormancy, disheveled hair and untidy appearance of the animals. They gained weight less well than the other rats. In this group by day 15 of the study 80% of the animals were dead, in the group that received Essentiale—60%, in the group that received the inventive agent—40%.
Quantitative assessment of the preparation's effectiveness in treatment of toxic hepatitis was performed using a point rating system, taking into account the marker indices: the largest score for each index was assigned to the group with the more pronounced positive effect of the preparation.

[3] = CCl4 intoxication, after 10 days i.v. treatment, inventive substance 25 mg/kg, Essentiale 1 ml/100 g, M ± m
[4] = point rating system, larger score = more pronounced positive effect, inventive substance 180 mg/kg, Essentiale 100 mg/kg
[5] = rats, CCl4 intoxication (cirrhosis), after 10 days oral treatment, inventive substance 90 mg/kg, Essentiale 100 mg/kg, M ± m
[6] = rats, CCl4 liver cirrhosis, oral treatment

With `O=Nc1c(O)n(-c2ccc(Br)cc2)c(=O)[nH]c1=O` [The inventive substance, 1-(4-bromophenyl)-6-hydroxy-5-nitroso-1,2,3,4-tetrahydropyrimidine-2.4-dione] as the compound, how does the Body weight ([1]; CCl4 intoxication, after 10 days i.v. treatment once every 24 h, inventive substance 25 mg/kg, Essentiale 1 ml/100 g, M ± m) read?
Its Body weight is 174 ± 8 g.

What about the Hexenal sleep ([1]; CCl4 intoxication, after 10 days i.v. treatment, hexenal 70 mg/kg, inventive substance 25 mg/kg, Essentiale 1 ml/100 g, M ± m) of the same compound?
The Hexenal sleep was 31.0 ± 2.0 min.

And the ACP [1, 3]?
Its ACP is 0.75 ± 0.10 μkat/l.

And the “Alanine aminotransferase, serum” value [1, 3]?
Its value is 0.85 ± 0.08 µmol/s/L.

What about the “Alkaline phosphatase, serum” value [1, 3] of the same compound?
The value was 811 ± 26.3 nmol/s/L.

What about the “Aspartate aminotransferase, serum” value [1, 3] of the same compound?
Its value is 0.32 ± 0.04 µmol/s/L.

And the “Ceruloplasmin, serum” value [1, 3]?
The value was 477 ± 44 mg/L.

What about the “Cholesterol, serum” value [1, 3] of the same compound?
The value was 1.70 ± 0.19 mmol/L.

What about the “Concentration of bromsulphalein at 10th minute after administrating the serum, extinction,” value [1, 3] of the same compound?
The value was 13.5 ± 1.6 extinction.

What about the “Glycogen, liver” value [1, 3] of the same compound?
The value was 2691 ± 191 mg %.

What about the LDH [1, 3] of the same compound?
The LDH was 5.49 ± 0.45 mmol/h/L.

What about the “Reduced glutathione, liver” value [1, 3] of the same compound?
Its value is 164 ± 10 mg %.

And the Relative liver mass [1, 3]?
The Relative liver mass was 27.87 ± 1.03 g/kg.

What about the “SH-groups, serum” value [1, 3] of the same compound?
Its value is 1554 ± 72 mg %.

What about the Thymol test [1, 3] of the same compound?
The Thymol test was 1.18 ± 0.17 turbidity units.

What about the “Total bilirubin, serum” value [1, 3] of the same compound?
Its value is 3.8 ± 0.5.

What about the “Total lipids, serum” value [1, 3] of the same compound?
Its value is 3.4 ± 0.09 g/L.

And the “Total protein, serum” value [1, 3]?
Its value is 69 ± 6 g/L.

And the “microvesicular focal steatosis (liver histology, in words)” value ([1]; CCl4 toxic hepatitis, after i.v. treatment)?
Its value is “absence of microvesicular focal steatosis”.

What about the “percentage of deaths in the groups by the end of the treatment” value ([1]; CCl4 toxic hepatitis, day 20, 40% dead by start of treatment (day 10), inventive substance 25 mg/kg i.v., Essentiale 1 ml/100 g i.v.) of the same compound?
The value was 40%.

What about the “manifestations of intoxication (clinical performance, in words)” value ([1]; CCl4 toxic hepatitis, i.v. treatment) of the same compound?
The value was “reduced or almost completely arrested the manifestations of intoxication”.

What about the “Quantitative assessment of effectiveness, ALP score” value [2, 4] of the same compound?
Its value is 11 points.

What about the “Quantitative assessment of effectiveness, ALT score” value [2, 4] of the same compound?
The value was 7 points.

What about the “Quantitative assessment of effectiveness, AST score” value [2, 4] of the same compound?
The value was 7 points.

What about the “Quantitative assessment of effectiveness, Hexenal sleep score” value [2, 4] of the same compound?
Its value is 10 points.

And the “Quantitative assessment of effectiveness, Weight coefficient score” value [2, 4]?
The value was 10 points.

And the Body weight ([2]; rats, CCl4 intoxication (cirrhosis), after 10 days oral treatment once every 24 h, inventive substance 90 mg/kg, Essentiale 100 mg/kg, M ± m)?
Its Body weight is 174 ± 7 g.

And the “Alanine aminotransferase, serum” value [2, 5]?
Its value is 0.85 ± 0.08 µmol/s/L.

What about the “Alkaline phosphatase, serum” value [2, 5] of the same compound?
The value was 811 ± 26.3 nmol/s/L.

And the “Aspartate aminotransferase, serum” value [2, 5]?
Its value is 0.32 ± 0.04 µmol/s/L.

And the Hexenal sleep [2, 5]?
Its Hexenal sleep is 31.0 ± 2.0 min.

What about the Relative liver mass [2, 5] of the same compound?
Its Relative liver mass is 27.87 ± 1.03.

What about the “degenerative changes of the liver (histology, in words)” value ([2]; rats, CCl4 liver cirrhosis, after oral treatment, majority of rats) of the same compound?
Its value is “no degenerative changes of the liver”.

What about the “condition and function of liver (in words)” value [2, 6] of the same compound?
The value was “virtually completely and reliably normalized the condition and function of liver”.

And the “manifestations of intoxication (clinical performance, in words)” value [2, 6]?
The value was “reduced or almost completely arrested the manifestations of intoxication”.

What about the “animals dead by day 15 of the study” value ([2]; rats, CCl4 liver cirrhosis, oral treatment, untreated CCl4 group 80%) of the same compound?
The value was 40%.

And the “Quantitative assessment of effectiveness, Total points” value ([2]; sum of marker index scores, inventive substance 180 mg/kg, Essentiale 100 mg/kg)?
The value was 45 points.

— patent publication US8999959B2, “Drug for treating liver lesions caused by the action of chemical or biological agents” (priority 2010, dated 2015)
